Measurements taken from US20120058099A1, “USE OF HYPOXANTHINE FOR PROMOTION OF NEURONAL OUTGROWTH” (CHILDREN'S MEDICAL CENTER CORPORATION, priority 2009, published 2012).
“Also recorded” adds a separate entry of the source.

B1: BDNF: brain derived neurotrophic factor (protein, UniProt P23560 19-247, looked up)
Neurotrophic factor BDNF …: APMKEANIRGQGGLAYPGVRTHGTLESVNGPKAGSRGLTSLADTFEHVIEELLDEDQKVRPNEENNKDADLYTSRVMLSSQVPLEPPLLFLLEEYKNYLDAANMSMRVRRHSDPARRGELSVCDSISEWVTAADKKTAVDMSGGTVTVLEKVPVSKGQLKQYFYETKCNPMGYTKEGCRGIDKRHWNSQCRTTQSYVRALTMDSKKRIGWRFIRIDTSCVCTLTIKRGR

Experiments:
[1] = system: embryonic cortical neurons; assay: Embryonic cortical neuron outgrowth visualised by Tau1/MAP2 staining (FIG. 3); format: cell-based, rat; settings: for axonal outgrowth (Tau1/MAP2 staining): BDNF 2 ng/ml or hypoxanthine 100 μM, FIG. 3
From the text: FIG. 3 is a series of photographs of embryonic cortical neurons grown in the presence of the indicated factors (BDNF, hypoxanthine, BDNF+6-thioguanine, BDNF+6-thioguanine+hypoxanthine), which have then been stained with either antibodies to Taul, antibodies to MAP2, or both antibodies to Taul and antibodies to MAP2, in order to visualize neuronal outgrowth.
(§1) These experiments were done on embryonic cortical neurons. The forebrains of […] rat pups were dissected and plated in media containing serum. After 3 hours the medium was exchanged for Medium E (Irwin et al. 2006) (Proc Nati Acad Sci U S A. 2006 Nov 28;103(48):18320-5). The cells were treated the following day with inosine or hypoxanthine, in the presence and absence of the indicated amount of the inhibitor 6-thioguanine (6-TG), and allowed to grow for 3 days. The 6-TG was added 1 hour before the hypoxanthine or inosine. Following the three days of growth, the cells were fixed and stained with Taul antibody and a fluorescent secondary antibody. Axons were then counted. […] FIG. 1 presents the data obtained.
Embryonic cortical neurons were grown in the presence of BDNF (2 ng/ml), hypoxanthine (100 μM), BDNF (2 ng/ml)+6-thioguanine (20 μM) , or BDNF (2 ng/ml)+6-thioguanine (20 μM)+hypoxanthine (100 μM), as described above. The cells were then fixed and stained with either antibodies to Taul, antibodies to map2, or both antibodies to Taul and antibodies to map2, and corresponding fluorescent secondary antibodies, in order to visualize axonal outgrowth.

[2] = system: embryonic cortical neurons; assay: Embryonic cortical neuron axon outgrowth, competition with 6-thioguanine (FIG. 1); format: cell-based, rat; settings: 6-TG 0-80 μM added 1 hour before hypoxanthine or inosine, 3 days growth
Procedure: FIG. 1 contains two separate sets of bar graphs and line graphs representative of data obtained from embryonic cortical neuron competition experiments.
as §1

[3] = system: embryonic cortical neurons; assay: Embryonic cortical neuron axonal outgrowth with or without BCX-34 (FIG. 2); format: cell-based, rat; settings: inosine or hypoxanthine 100 μM, BDNF 2 ng/ml
Procedure: as §1
In a similar experiment, embryonic cortical neurons were given brain derived neurotrophic factor (BDNF) (2 ng/ml), inosine, or hypoxanthine (100 μM). […] The cells were then scored for neuron axonal outgrowth. The data collected is represented in FIG. 2.

Mst3b = Mst3b (Homo sapiens, UniProt Q9Y6E0); settings: data not shown
Sequence of Mst3b (Q9Y6E0 whole entry): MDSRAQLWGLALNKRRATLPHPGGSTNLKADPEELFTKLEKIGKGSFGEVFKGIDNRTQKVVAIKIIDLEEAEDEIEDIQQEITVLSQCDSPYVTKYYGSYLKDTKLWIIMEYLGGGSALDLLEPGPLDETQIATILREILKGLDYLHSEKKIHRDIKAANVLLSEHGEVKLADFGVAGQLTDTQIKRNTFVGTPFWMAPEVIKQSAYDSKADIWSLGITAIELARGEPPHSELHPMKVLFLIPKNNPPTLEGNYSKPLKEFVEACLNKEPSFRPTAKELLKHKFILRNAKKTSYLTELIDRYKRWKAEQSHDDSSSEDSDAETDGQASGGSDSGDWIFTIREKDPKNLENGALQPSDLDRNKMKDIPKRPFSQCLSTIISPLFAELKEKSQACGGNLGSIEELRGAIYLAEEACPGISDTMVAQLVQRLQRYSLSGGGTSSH

Molecule	inhibition of BDNF stimulated outgrowth ([1]; BDNF 2 ng/ml + 6-thioguanine 20 μM)	inhibition by 6-thioguanine of inosine- and hypoxanthine-induced axon outgrowth [2]	inhibition by 6-thioguanine of inosine- and hypoxanthine-induced axon outgrowth ([2]; listed as 6-thioguanine)	induction of axonal outgrowth [3]	reversal of 6-TG inhibition of BDNF stimulated outgrowth ([1]; BDNF 2 ng/ml + 6-thioguanine 20 μM + hypoxanthine 100 μM)	axonal outgrowth (Tau1/MAP2 staining) [1]	activation of Mst3b (Mst3b)
Nc1nc2nc[nH]c2c(=S)[nH]1 [6-TG, 6-thioguanine, reference compound]	can be inhibited	competitively inhibited the actions of both inosine and hypoxanthine	competitively inhibits the actions of both inosine and hypoxanthine	–	–	–	–
OC[C@H]1O[C@@H](n2cnc3c(O)ncnc32)[C@H](O)[C@@H]1O [inosine, reference compound]	–	similarly inhibited by 6-TG	–	induced axonal outgrowth similarly to BDNF	–	–	–
O=c1[nH]cnc2nc[nH]c12 [hypoxanthine]	–	similarly inhibited by 6-TG	–	induced axonal outgrowth similarly to BDNF	inhibition can be overcome; also recorded: inhibition was overcome	cause outgrowth; also recorded: caused axonal outgrowth	activates Mst3b
B1	–	–	–	–	–	cause outgrowth; also recorded: caused axonal outgrowth	–
